“Also recorded” adds a separate entry of the source.
Key:
telomerase RNA (hTR) = assay: RT-PCR for telomerase RNA in oligonucleotide-treated U251-MG cells; type: cell-based, human; conditions: oligonucleotide 5 μM, 5 hours treatment
Procedure: Chimeric oligonucleotides were synthesised on solid supports and purified as described previously (Torrence et al 1993; Lesiak et al 1993; Xiao et al 1994, 1996; Cirino et al 1997). Tumor cells were seeded at 3×10^5 cells/well (3 ml) in 6-well plates and incubated overnight at 37° C. Cells were then treated with oligonucleotides (5 μM). Five hours later total RNA was isolated by using Trizol solution (GIBCO BRL, Grand Island, N.Y.). Expression of telomerase RNA was determined with RT-PCR. The RNA was reverse transcribed into complementary DNA (cDNA) with random oligos used as a primer, and then the cDNA was diluted three times with buffer 10×PCR buffer (Perkin-Elmer, Norwalk, Conn.) at a final concentration of 1:4. The DNA at each dilution was amplified using primers to antisense and sense sequences on opposite sides of the human telomerase RNA sequence, 5′-[…]-3′ (SEQ ID NO:4) and 5′[…]-3′ […], respectively, or to the GAPDH coding sequence, 5′-[…]-3′ […] and 5′[…]-3′ (SEQ ID NO:7), respectively, producing DNA fragments of 400 bp for telomerase cDNA and 508 bp for the GAPDH cDNA, respectively. The PCR went for 30 cycles (94° C., 1 min; 55° C., 1 min; 72° C., 2 min) for telomerase and 30 cycles (94° C., 1 min; 60° C., 1 min; 74° C., 3 min) for GAPDH. The PCR products were analyzed by 1.2% agarose gel electrophoresis and ethidium bromide staining.
Aliquots of U251-MG cells were treated with the “active” oligonucleotide and the two controls for 5 hours. RNA was then prepared from these cells and subjected to RT-PCR to detect telomerase RNA. […] In contrast, telomerase RNA (hTR) was present in cells treated with the control oligonucleotides; spA2-anti-hTR and spA4-anti-(M6)hTR. Thus, hTR could be selectively destroyed in U251-MG cells. Since the RT-PCR assay is not quantitative, it was not possible to assess whether treatment with the spA2-anti-hTR , which has the fully complementary target sequence, had any antisense effect by itself (see below). […]

[1] = system: U373 human malignant glioma cells; assay: TUNEL assay for apoptosis, oligonucleotide plus lipofectamine; type: cell-based
Procedure: To further determine whether treatment with oligonucleotides induced apoptosis, tumor cells and tissues were stained by the terminal deoxynucleotidyl transferase (TdT)-mediated DUTP nick end labeling (TUNEL) technique using Apo-Tag kit (peroxidase conjugated) (Oncor Inc., Gaithersburg, Md.). The staining of apoptotic cells was done on U373MG cells. Oligonucleotides with lipofectamine was added to the cells every day. The final concentrations were 0.5 micromolar and 8 microgram/ml for oligo and lipofectamine, respectively. Pictures were taken after 3 days of treatment.

[2] = system: normal human astrocytes (PIN); assay: Cell viability assay, trypan blue, same protocol on telomerase-negative normal astrocytes; type: cell-based; conditions: same protocol as the tumor cells, over the treatment period
Procedure: The cytotoxic effect of 2-5A activator antisense complexes on tumor cells was determined using the trypan blue dye exclusion assay. Tumor cells were seeded at 10^4 cells/well (0.1 ml) in 96-well flat-bottomed plates and incubated overnight at 37° C. Then, oligonucleotides (5 micromolar) in water were added into cells every 12 hr. On successive days the cells were harvested and 25% of the total was examined microscopically to determine the percentage of viable cells, another 25% was replated to continue treatment and the remaining 50% were used for the TRAP assay.

[3] = system: intracranial U373-MG tumors; assay: Survival of mice with intracranial malignant glioma, intracranial injection; type: in vivo, Balb/c nude mice
Procedure: To establish murine models with intracranial tumors of U373-MG human malignant glioma cells, Balb/c nude mice were used. Mice (8-12 week-old male) were anesthetized using ketamine (90 mg/kg) and xylazine (10 mg/kg) and placed in a stereotaxic frame (Lab Standard w/18 Degree Earbars, Stoelting, Wood Dale, Ill.). Inoculation of 5×10^5 tumor cells (10 microliter of a tumor cell suspension of 5×10^7/ml in serum free DMEM [0.5 ml] and matrigel [0.5 ml]) was performed transcranially using a 27-gauge stainless-steel needle and microliter syringe (Perfectum, Popper & Sons, Inc., New Hyde Park, N.Y.). The needle insertion was in the skull 1 mm anterior and.2 mm lateral to the bregma and the depth of insertion was 4 mm from the skull (the caudate nucleus). The needle was left in place for 3 min and then withdrawn slowly over another minute. Two weeks after inoculation of tumor cells, mice were deeply anesthetized with ketamine/xylazine, and sacrificed by transcardiac perfusion with 4% formaldehyde. The brains were then sliced to include the injection site, and 12 μm sections were made for histological analysis. To determine the effect of 2-5A-anti-hTR on intracranial tumors, spA4-anti-hTR (3 nmol/10 microliter distilled water/3 microliter Lipofectamine, three times) was injected intracranially into the tumors via the same coordinates three weeks after inoculation of tumor cells (on Days 21, 23, and 25).

U251-MG cells = assay: TUNEL assay on cultured cells treated with spA4-anti-hTR; type: cell-based, human; conditions: treated cells fixed and stained
[4] = system: normal human lung cell line, WI 38; assay: Viable cell count, daily oligonucleotide plus lipofectamine; type: cell-based; conditions: WI 38, 0.5 micromolar daily plus lipofectamine, 8 days
Procedure: (§1) Cells (10,000/well) were seeded on 96 well tissue culture dishes, and treated every 24 hours. A 10× concentrated mixture of oligonucleotides plus lipofectamine in water was prepared containing 5 micromolar oligonucleotide and 80 microgram per ml lipofectamine™ (Gibco/BRL) and incubated for 10 min at room temperature. Media was removed from the cells, 10 microliters of the oligonucleotide/lipofectamine mixture was added directly to the cultured cells followed by 90 microliters of media plus serum. The media was changed with oligonucleotide/lipofectamine treatments every 24 h. Cells were passaged when the control cells reached confluency, and viable cells were counted after staining with Trypan Blue (GibcoBRL). The numbers of cells treated only with lipofectamine were used as the control to calculate percentages of cell survival or viability.
(§2) For the experiments described below, lipofectamine was used to enhance the uptake of the oligonucleotides into cells (Williams et al., 1996, Leukemia 10:[…]). […] Using this protocol for 8 days, SpA4-anti-hTR reduced cell viability by 9% and 35% in the normal human lung cell line, WI 38, and in normal diploid human fibroblasts (MRC5), respectively, while causing a 90% reduction in the viability of U373 cells.

[5] = system: normal diploid human fibroblasts (MRC5); assay: as above; type: cell-based; conditions: MRC5, 0.5 micromolar daily plus lipofectamine, 8 days
Procedure: as §1, §2

Question: With “Sp5′A2′p(5′A2p)3-[(Bu)p]2-5′GCG CGG GGA GCA AAA GCA C3′-3′T5′ (antisense GCGCGGGGAGCAAAAGCAC; 5'-thiophosphate 2-5A tetramer, butanediol linkers, 3'-3'T cap, chemistry not fully specified) [spA4-anti-hTR, 2-5A tetramer linked by butanediol linkers to 19-mer antisense against human telomerase RNA nucleotides 76 to 94]” as the substance, how does the “telomerase RNA (hTR) detected by RT-PCR” value (telomerase RNA (hTR)) read?
Answer: no detectable telomerase RNA

Question: What about the “apoptosis by TUNEL (in words)” value ([1]; 0.5 micromolar daily plus lipofectamine for 3 days) of the same substance?
Answer: apoptosis was clearly visible

Question: And the “apoptosis by TUNEL assay for DNA breakage (in words)” value ([1]; over time of treatment)?
Answer: time-dependent increase in apoptotic cells; also recorded: caused apoptosis

Question: What about the “reduction in cell viability” value [2] of the same substance?
Answer: less than 5%

Question: What about the “reduction in cell viability” value ([2]; listed as SpA4-anti-hTR) of the same substance?
Answer: 2-3%

Question: And the survival of mice ([3]; 9 weeks after inoculation of tumor cells, 3 nmol plus Lipofectamine intracranially on Days 21, 23, 25)?
Answer: 50%

Question: And the mice survived ([3]; at 62 days post-tumor implantation)?
Answer: 50%

Question: What about the “survival of mice (in words)” value ([3]; intracranial injection) of the same substance?
Answer: Enhanced survival

Question: What about the “apoptotic cell death by TUNEL (in words)” value (U251-MG cells) of the same substance?
Answer: increased number of darkly staining nuclei

Question: What about the “reduction in cell viability” value [4] of the same substance?
Answer: 9%

Question: And the “reduction in cell viability” value [5]?
Answer: 35%
